Columns and labels:
[1] = potentiometric titration, Zn^2+ complex stability constants; assay type: binding; details: 298 K, 0.1 M KNO3, metal/ligand 0.9:1 to 2.2:1
Method: (§1) Potentiometric measurements were carried out to give insight into the coordination environment of Zn^2+ bound to the d-bdnf peptide (Figure S5). […] The four protonation equilibria of the aspartic and glutamic residues partly overlap but, in agreement with the literature data, the aspartic β-carboxylic group is more acidic than glutamic γ-carboxylic one.[48] The potentiometric titrations were carried out exploring 0.9:1 and 2.2:1 metal to ligand molar ratio. […] The peptide forms two complex species, [ZnLH] and [ZnL]. The first one is the predominant at pH = 6, and the calculated stability constant value [logK(111) = logβ(111) – logK(011) = 5.71] indicates the involvement of three nitrogen atoms in the metal coordination environment. The [ZnL] species display a stability constant value, logβ = 7.15, higher than that of protonated species indicative of the involvement of a further nitrogen atom in the metal binding mode. In this complex species, Zn^2+ is bound to four nitrogen atoms with the involvement of two amino and two imidazole (2NH2,2NIm coordination mode). […]
(§2) Potentiometric measurements
Potentiometric titrations were carried out on a Titrando 905 automatic, using a combined glass-Ag/AgCl electrode (Metrohm, Switzerland). […] To avoid systematic errors and verify reproducibility, the EMF values of each experiment were recorded at different time intervals. The data were analyzed by […]

[2] = potentiometric titration, protonation constants; assay type: physicochemical; details: 298 K
Method: as §1, §2
Potentiometric titrations were carried out on a Titrando 905 automatic, using a combined glass-Ag/AgCl electrode (Metrohm, Switzerland). Solutions (2.0 mL) were thermostated at 298 K and in argon atmosphere. The ionic strength was 0.1 M in KNO3. A 0.1 M solution of KOH was used to titrate solutions containing either the peptides only (protonation constants) or the peptides with Zn2+ (complexation constants). The peptide concentrations range used was 1-2 mM in both series of experiments. At least three independent titrations were performed. Starting pH value was adjusted to 2.4 by adding HNO3 0.2 M. The titrations were carried out up to pH 8.5. Metal ion/ligand ratios between 0.9:1 and 2.2:1 were employed. To avoid systematic errors and verify reproducibility, the EMF values of each experiment were recorded at different time intervals. The data were analyzed by […]
using HYPERQUAD 2003 program 17. […]

[3] = test system: SH-SY5Y cells; test: neurite outgrowth of differentiated SH-SY5Y cells; assay type: cell-based, human; details: 3 days after 5 days retinoic acid
Method: Figure 3 Neurite outgrowth stimulated by BDNF and its mimetic peptide ligands. (A) Top, left: schematic timeline of the experiment. SH-SY5Y cells were differentiated for 5 days (d1–5) by addition of retinoic acid (RA, gray bar) in the cell medium. Then, cells were stimulated for 3 days (d6–8) with 150 ng/mL BDNF or different concentrations of its peptide-mimetics (black bar) or left untreated (white bar). On the right and bottom, representative images of the differentiated cells at the end of each treatment. Scale bar 50 μm. (B) Scatter dot plot of the total neurite length, normalized to the number of cell bodies present in each analyzed field. […] For each field, an average of 50–200 cells were counted. […] (C) Representative fluorescence images of DIV3 Ren cells stained with DAPI (blue) and β3-tubulin (green) after differentiation with the standard medium (CTRL), or with the standard medium supplemented with 50 ng/mL BDNF or with 1 μM d-bdnf. […] (D) Column plot of the mean ± SD fraction of β3-tubulin (green) positive on the total cells, counted in the DAPI channel of the analyzed fields (nfields) (CTRL: nfields = 10 and total ncells = 4756; BDNF: nfields = 11 and total ncells = 4330; d-bdnf: nfields = 10 and total ncells = 5619 cells; ****p < 0.0001, *p < 0.05 according to the one-way ANOVA with Dunnett’s multiple comparison test). […]

[4] = species LH 12 (NH2), 0.1 M KNO3
[5] = species LH 13 (His), 0.1 M KNO3
[6] = species LH 14 (His), 0.1 M KNO3
[7] = species LH 15 (COO), 0.1 M KNO3
[8] = species LH 16 (COO), 0.1 M KNO3
[9] = species LH 17 (COO), 0.1 M KNO3
[10] = species LH 18 (COO), 0.1 M KNO3

With “HSDPARRGELSVC-C-VSLEGRRAPDSH (disulfide) [d-bdnf]” the “log (Zn2+ complex stability constant)” value ([1]; species ZnLH 110, [ZnL] (2 His, 2 NH2)) was 7.15 (3), the “log (Zn2+ complex stability constant)” value ([1]; species ZnLH 111 (2 His, NH2)) was 13.30 (2) and the “logk (stepwise protonation, pK)” value ([2]; species LH 11 (NH2), 0.1 M KNO3) was 7.59. For the same substance, the “log (protonation constant)” value ([2]; species LH 11 (NH2), 0.1 M KNO3, at least three titrations) was 7.59, the “log (protonation constant)” value [2, 4] was 14.75 and the “logk (stepwise protonation, pK)” value [2, 4] was 7.16. For the same substance, the “log (protonation constant)” value [2, 5] was 20.71, the “logk (stepwise protonation, pK)” value [2, 5] was 5.96 and the “log (protonation constant)” value [2, 6] was 26.03. For the same substance, the “logk (stepwise protonation, pK)” value [2, 6] was 5.32, the “log (protonation constant)” value [2, 7] was 30.69 and the “logk (stepwise protonation, pK)” value [2, 7] was 4.66. The “log (protonation constant)” value [2, 8] was 34.90, the “logk (stepwise protonation, pK)” value [2, 8] was 4.20 and the “log (protonation constant)” value [2, 9] was 38.44. The “logk (stepwise protonation, pK)” value [2, 9] was 3.55, the “log (protonation constant)” value [2, 10] was 41.75 and the “logk (stepwise protonation, pK)” value [2, 10] was 3.31. For the same substance, the neurite network ([3]; 1 and 5 μM, compared with BDNF 150 ng/mL) was “able to elicit a neurite network similar to that raised by nM concentrations of BDNF” and the neurite network ([3]; higher doses (10 μM)) was “not able to produce the same effect”.
